This is an account of results in PubChem BioAssay AID651630 (Sanford-Burnham Center for Chemical Genomics, 2012).

Each structure is given as a SMILES string. The source made the active and inactive calls.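 How the source made its calls: active means lipid-stain IC50 at or below a set limit, with nuclear-stain toxicity IC50 at least five times higher; inactive means the rest.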 Bounds are passed on as bounds.

The subject of one assay is DAPI. Description: triacylglycerol accumulation inhibitor potency, dose response, cell-based, panel, Nile Red and DAPI fluorescence, H9c2 (AID 651630).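 Further: cells exposed to compound overnight before fixation and staining.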 As to conditions: H9c2 cells, DAPI nuclear fluorescence (cytotoxicity counter-readout), oleic acid.
The next assay has as its system TAG. The description is as above. As to conditions: H9c2 cells, Nile Red TAG fluorescence, oleic acid.

Turning to `Cc1nn(-c2ccc([N+](=O)[O-])cc2)c2c1C(c1ccc(OC(F)F)cc1)N1C(=N2)C(=O)Nc2ccccc21` (centres undefined), the IC50 cytotoxicity (DAPI nuclear signal decrease) was > 25 µM (inactive) in the assay on DAPI (mean of runs), more than 25 µM in the assay on DAPI (run 1) and more than 25 µM in the assay with DAPI (run 2). Besides, the IC50 was 8.6 µM in the assay on TAG (mean of runs), 6.39 µM with TAG (run 1) and 10.8 µM with TAG (run 2).
With `CC(C)(C)OC(=O)[C@H](Cc1ccccc1)NC(=O)c1ncn2c1c(=O)[nH]c1ccc(Br)cc12`, the IC50 cytotoxicity (DAPI nuclear signal decrease) is > 25 µM (inactive) in the assay with DAPI (mean of runs), more than 25 µM in the assay with DAPI (run 1) and more than 25 µM in the assay with DAPI (run 2). In addition, the 50% inhibitory concentration (IC50) in the assay on TAG (mean of runs) is 11.8 µM; in the assay with TAG (run 1), 12 µM; in the assay on TAG (run 2), 11.6 µM.
As to `c1cc(C2CCCCC2)ccc1Oc1nc(N2CCOCC2)nc(N2CCOCC2)n1`, the IC50 cytotoxicity (DAPI nuclear signal decrease) with DAPI (mean of runs) is > 25 µM (inactive); with DAPI (run 1), more than 25 µM; in the assay with DAPI (run 2), more than 25 µM. The values for the IC50 in the assay on TAG (mean of runs), in the assay with TAG (run 1) and with TAG (run 2) were > 25 µM (inactive), more than 25 µM and more than 25 µM, respectively.
On to `Cc1cccc(NC(=O)c2ccc([N+](=O)[O-])o2)c1C`, for which the IC50 cytotoxicity (DAPI nuclear signal decrease) in the assay with DAPI (mean of runs) is 10.3 µM (inactive); in the assay with DAPI (run 1) it was 9.7 µM; in the assay on DAPI (run 2) it was 10.9 µM. The half-maximal inhibitory concentration (IC50) with TAG (run 1) is 19.8 µM; in the assay on TAG (run 2) it was more than 25 µM.
Regarding `COCCCn1c(N)c(C(=O)Nc2ccccc2)c2nc3ccccc3nc21`, the IC50 cytotoxicity (DAPI nuclear signal decrease) is > 25 µM (inactive) with DAPI (mean of runs), more than 25 µM in the assay with DAPI (run 1) and more than 25 µM in the assay on DAPI (run 2). The half-inhibitory concentration (IC50) with TAG (mean of runs) was 13.5 µM; in the assay with TAG (run 1), 11.8 µM; in the assay on TAG (run 2), 15.2 µM.
Turning to `CCN1CCN(Cc2ccc(NC(=O)c3ccc(C)c(NC(=O)C(=O)c4c[nH]c5ccccc45)c3)cc2C(F)(F)F)CC1`, the IC50 cytotoxicity (DAPI nuclear signal decrease) in the assay with DAPI (mean of runs) was 23.8 µM (inactive); in the assay with DAPI (run 1) it was 24.4 µM; in the assay with DAPI (run 2), 23.1 µM. Besides, the concentration for half-maximal inhibition (IC50) in the assay on TAG (mean of runs) was 4.98 µM; in the assay on TAG (run 1), 6.17 µM; in the assay on TAG (run 2), 3.8 µM.
For `O=C1N[C@@H](Cc2ccccc2)COC(=O)[C@@H](Cc2ccc(F)cc2)CC/C=C/C[C@@H]1CC(=O)N(CCO)Cc1ccccc1`, the IC50 cytotoxicity (DAPI nuclear signal decrease) in the assay with DAPI (mean of runs) is > 25 µM (inactive); in the assay on DAPI (run 1), more than 25 µM; in the assay on DAPI (run 2) it was more than 25 µM. In addition, the IC50 in the assay on TAG (mean of runs) was 20.4 µM (inactive); in the assay on TAG (run 1), 18.5 µM; in the assay with TAG (run 2), 22.3 µM.
As for `COc1cc2nc(NCCCN3CCN(C)CC3)n3nc(-c4ccccc4)nc3c2cc1OC`, the IC50 cytotoxicity (DAPI nuclear signal decrease) is > 25 µM (inactive) in the assay with DAPI (mean of runs), more than 25 µM in the assay on DAPI (run 1) and more than 25 µM with DAPI (run 2). In addition, the IC50 is > 25 µM (inactive) in the assay on TAG (mean of runs), more than 25 µM with TAG (run 1) and more than 25 µM with TAG (run 2).
For the compound `C=CC[C@@H](CC(=O)N(CCO)Cc1ccccc1)C(=O)N[C@H](COC(=O)[C@@H](CC=C)CC(=O)OC(C)(C)C)Cc1ccccc1`, the values for the IC50 cytotoxicity (DAPI nuclear signal decrease) with DAPI (mean of runs), with DAPI (run 1) and in the assay with DAPI (run 2) were > 25 µM (inactive), more than 25 µM and more than 25 µM, respectively. Further, the results for the half-maximal inhibitory concentration (IC50) with TAG (mean of runs), in the assay with TAG (run 1) and with TAG (run 2) were 5.86 µM, 5.71 µM and 6.02 µM, respectively.
Regarding `OCCCn1c(C2CCCN2c2nc(-c3ccc(Cl)cc3)cs2)nc2cc(Cl)c(N3CCCCC3)cc21` (centres undefined), the IC50 cytotoxicity (DAPI nuclear signal decrease) with DAPI (mean of runs) was > 25 µM (inactive); in the assay on DAPI (run 1), more than 25 µM; in the assay with DAPI (run 2), more than 25 µM. The 50% inhibitory concentration (IC50) with TAG (run 1) is 24.6 µM; with TAG (run 2) it was more than 25 µM.
`C=CCN1C(=O)/C(=C2\SC(N3CCOCC3)=NC2=O)c2cc(Br)ccc21`: the IC50 cytotoxicity (DAPI nuclear signal decrease) in the assay with DAPI (mean of runs) was > 25 µM (inactive); in the assay on DAPI (run 1) it was more than 25 µM; in the assay on DAPI (run 2), more than 25 µM. Besides, the IC50 in the assay on TAG (mean of runs) is 22.4 µM (inactive); in the assay with TAG (run 1) it was 22.5 µM; in the assay with TAG (run 2) it was 22.4 µM.
Regarding `COc1ccc(NC(=O)O[C@@H](C)[C@@H]2CN3CCc4c([nH]c5ccc(-c6ccc(OC)cc6)cc45)[C@@H]3C[C@@H]2N(C)C(=O)Nc2ccc(OC)cc2)cc1`, the values for the IC50 cytotoxicity (DAPI nuclear signal decrease) in the assay with DAPI (mean of runs), in the assay on DAPI (run 1) and with DAPI (run 2) were > 25 µM (inactive), more than 25 µM and more than 25 µM, respectively. Further, the half-inhibitory concentration (IC50) is 8.04 µM in the assay on TAG (mean of runs), 7.66 µM in the assay with TAG (run 1) and 8.42 µM with TAG (run 2).
With `Cc1ccc(-c2nc(NC(=O)c3cc(C(C)(C)C)nn3C)sc2C)cc1Cl`, the IC50 cytotoxicity (DAPI nuclear signal decrease) in the assay on DAPI (mean of runs) was 21.1 µM (inactive); in the assay with DAPI (run 1), 20.2 µM; in the assay with DAPI (run 2), 22 µM. Besides, the half-maximal inhibitory concentration (IC50) with TAG (mean of runs) was 5.56 µM; in the assay with TAG (run 1), 6.38 µM; in the assay with TAG (run 2), 4.74 µM.
With `COc1cc(-c2cc(NC=O)c3ncc(-c4cccc(C(=O)N(C)C)c4)n3c2)cc(OC)c1OC`, the values for the IC50 cytotoxicity (DAPI nuclear signal decrease) in the assay on DAPI (mean of runs), with DAPI (run 1) and in the assay on DAPI (run 2) were > 25 µM (inactive), more than 25 µM and more than 25 µM, respectively. Also, the IC50 with TAG (mean of runs) is 8.89 µM; in the assay on TAG (run 1) it was 5.06 µM; in the assay on TAG (run 2) it was 12.7 µM.
With `Fc1ccc(Oc2nc(-c3ccccn3)nc3ccccc23)cc1`, the figures for the IC50 cytotoxicity (DAPI nuclear signal decrease) in the assay with DAPI (mean of runs), in the assay on DAPI (run 1) and in the assay on DAPI (run 2) were > 25 µM (inactive), more than 25 µM and more than 25 µM, respectively. Moreover, the results for the IC50 in the assay with TAG (mean of runs), in the assay on TAG (run 1) and in the assay on TAG (run 2) were > 25 µM (inactive), more than 25 µM and more than 25 µM, respectively.
With `CCC(C)(C)NC(=O)C(c1cccn1C)N(Cc1ccc(OC)cc1)C(=O)Cn1nnc2ccccc21` (centres undefined), the figures for the IC50 cytotoxicity (DAPI nuclear signal decrease) in the assay on DAPI (mean of runs), in the assay with DAPI (run 1) and in the assay with DAPI (run 2) were > 25 µM (inactive), more than 25 µM and more than 25 µM, respectively. Besides, the IC50 in the assay with TAG (mean of runs) is > 25 µM (inactive); in the assay with TAG (run 1), more than 25 µM; with TAG (run 2), more than 25 µM.
`Nc1c(C(=O)Nc2ccccc2)c2nc3ccccc3nc2n1-c1ccc(O)cc1`: the IC50 cytotoxicity (DAPI nuclear signal decrease) in the assay with DAPI (run 1) and in the assay on DAPI (run 2) was more than 25 µM throughout. The 50% inhibitory concentration (IC50) is 2.99 µM in the assay on TAG (mean of runs), 2.11 µM with TAG (run 1) and 3.88 µM in the assay on TAG (run 2).
With `CCOC(=O)Nc1ccc2c(c1)C(=NNC(=S)NC)c1ccccc1-2`, the IC50 cytotoxicity (DAPI nuclear signal decrease) in the assay with DAPI (run 1) is more than 25 µM; with DAPI (run 2), 9.75 µM. Further, the IC50 in the assay on TAG (mean of runs) is > 25 µM (inactive); in the assay with TAG (run 1), more than 25 µM; in the assay with TAG (run 2), more than 25 µM.
For the compound `CC(C)(Oc1ccc(Cl)cc1)C(=O)Nc1ccc2oc(-c3ccncc3)nc2c1`, the IC50 cytotoxicity (DAPI nuclear signal decrease) in the assay with DAPI (mean of runs) is > 25 µM (inactive); in the assay on DAPI (run 1), more than 25 µM; in the assay with DAPI (run 2) it was more than 25 µM. The IC50 in the assay on TAG (mean of runs) is > 25 µM (inactive); in the assay on TAG (run 1), more than 25 µM; with TAG (run 2), more than 25 µM.
Take `CC1(C(=O)NCc2ccccc2)Cc2c(-c3cccc(C(N)=O)c3)ccnc2O1` (centres undefined): the IC50 cytotoxicity (DAPI nuclear signal decrease) is > 25 µM (inactive) in the assay with DAPI (mean of runs), more than 25 µM in the assay on DAPI (run 1) and more than 25 µM in the assay with DAPI (run 2). Moreover, the values for the IC50 in the assay on TAG (run 1) and in the assay on TAG (run 2) were 20.9 µM and more than 25 µM, respectively.
For the compound `CCN(CC)CCNc1nc(-n2nc(C)cc2C)nc2sc3c(c12)CC(C)(C)OC3`, the values for the IC50 cytotoxicity (DAPI nuclear signal decrease) with DAPI (mean of runs), with DAPI (run 1) and in the assay with DAPI (run 2) were > 25 µM (inactive), more than 25 µM and more than 25 µM, respectively. The IC50 is 19.4 µM (inactive) in the assay with TAG (mean of runs), 16.3 µM in the assay on TAG (run 1) and 22.6 µM with TAG (run 2).
For `COc1ccccc1NC(=O)Nc1nc(C(N)Cc2ccc(C(F)(F)F)cc2)cs1` (centres undefined), the IC50 cytotoxicity (DAPI nuclear signal decrease) is > 25 µM (inactive) in the assay with DAPI (mean of runs), more than 25 µM with DAPI (run 1) and more than 25 µM with DAPI (run 2). The half-inhibitory concentration (IC50) is 16.1 µM in the assay on TAG (run 1) and more than 25 µM with TAG (run 2).
For the compound `CC(C)N1CSC(=S)N(Cc2ccccc2)C1`, the IC50 cytotoxicity (DAPI nuclear signal decrease) was > 25 µM (inactive) with DAPI (mean of runs), more than 25 µM in the assay on DAPI (run 1) and more than 25 µM with DAPI (run 2). Further, the IC50 in the assay with TAG (mean of runs) was > 25 µM (inactive); in the assay on TAG (run 1), more than 25 µM; in the assay on TAG (run 2), more than 25 µM.
With `COc1cc(C(CCN2CCCC(C)C2)c2c(OC)cc(OC)c3c(-c4ccccc4)cc(=O)oc23)cc(OC)c1OC` (centres undefined), the figures for the IC50 cytotoxicity (DAPI nuclear signal decrease) with DAPI (mean of runs), in the assay on DAPI (run 1) and in the assay with DAPI (run 2) were > 25 µM (inactive), more than 25 µM and more than 25 µM, respectively. Also, the IC50 was 14.1 µM in the assay on TAG (mean of runs), 14.8 µM with TAG (run 1) and 13.5 µM with TAG (run 2).
With `N#CC1C=Cc2c(ccc3ccccc23)N1C(=O)c1ccccc1` (centres undefined), the IC50 cytotoxicity (DAPI nuclear signal decrease) is > 25 µM (inactive) in the assay with DAPI (mean of runs), more than 25 µM in the assay on DAPI (run 1) and more than 25 µM with DAPI (run 2). Besides, the IC50 in the assay on TAG (mean of runs) is > 25 µM (inactive); in the assay with TAG (run 1) it was more than 25 µM; in the assay on TAG (run 2), more than 25 µM.
`CCCCCc1ccc(-c2cn(Cc3ccc(C(=O)c4ccccc4)cc3)nn2)cc1`: the IC50 cytotoxicity (DAPI nuclear signal decrease) was > 25 µM (inactive) in the assay with DAPI (mean of runs), more than 25 µM in the assay with DAPI (run 1) and more than 25 µM in the assay on DAPI (run 2). The 50% inhibitory concentration (IC50) was 17.9 µM in the assay with TAG (run 1) and more than 25 µM in the assay on TAG (run 2).
